Measured values as given in patent US6355640B1, “Pyrazolopyridine adenosine antagonists” (Fujisawa Pharmaceutical Co., Ltd., priority 1993, dated 2002).

| Structure (SMILES) | melting point |
| --- | --- |
| CCCn1c(-n2nc(-c3c(-c4ccccc4)nn4ccccc34)ccc2=O)cc(=O)n(CC(=O)OC)c1=O [Example 29, 3-[2-(2,4-Dioxo-3-methoxycarbonylmethyl-1-propyl-1,2,3,4-tetrahydropyrimidin-6-yl)-3-oxo-2,3-dihydropyridazin-6-yl]-2-phenylpyrazolo[1,5-a]pyridine] | 191 to 195 °C |
| CCOC(=O)C[C@H]1CCCC[C@H]1n1nc(-c2c(-c3ccccc3)nn3ccccc23)ccc1=O (relative stereo) [Example 33(2), cis-3-[2-(2-Ethoxycarbonylmethylcyclohexyl)-3-oxo-2,3-dihydropyridazin-6-yl]-2-phenylpyrazolo[1,5-a]pyridine] | 151 to 152 °C |
| CN1CCN(C(=O)CC2=C(n3nc(-c4c(-c5ccccc5)nn5ccccc45)ccc3=O)CCCC2)CC1.Cl (hydrate or solvate) | 188 to 191 °C |
| O=C(O)C[C@@H]1CCCC[C@H]1n1nc(-c2c(-c3ccccc3)nn3ccccc23)ccc1=O (relative stereo) [Example 39, trans-3-[2-(2-Carboxymethylcyclohexyl)-3-oxo-2,3-dihydropyridazin-6-yl]-2-phenylpyrazolo[1,5-a]pyridine] | 238 to 240 °C |
| O=C1CCCCC1n1nc(-c2c(-c3ccccc3)nn3ccccc23)ccc1=O (single isomer, unassigned) [Example 2 (more polar compound), 3-[2-(2-oxocyclohexyl)-3-oxo-2,3-dihydropyridazin-6-yl]-2-phenylpyrazolo[1,5-a]pyridine] | 166 to 168 °C |
| O=C(O)[C@@H]1CC[C@H](n2nc(-c3c(-c4ccccc4)nn4ccccc34)ccc2=O)C(=O)C1 (relative stereo) [Example 13, cis-3-[2-(4-carboxy-2-oxocyclohexyl)-3-oxo-2,3-dihydropyridazin-6-yl]-2-phenylpyrazolo[1,5-a]pyridine] | 186 to 188 °C |
| CC(C)(C)OC(=O)/C=C1\CCCCC1n1nc(-c2c(-c3ccccc3)nn3ccccc23)ccc1=O (stereo not shown) [Example 95(3), (E)-3-[2-{2-(tert-Butoxycarbonylmethylene)-cyclohexyl}-3-oxo-2,3-dihydropyridazin-6-yl]-2-phenylpyrazolo[1,5-a]pyridine] | 110 to 116 °C |
| O=C(O)CC1=C(n2nc(-c3c(-c4ccccc4)nn4ccccc34)ccc2=O)CCCCC1 (hydrate or solvate) [Example 19, 3-[2-(2-carboxymethyl-1-cycloheptenyl)-3-oxo-2,3-dihydropyridazin-6-yl]-2-phenylpyrazolo[1,5-a]-pyridine] | 171 to 172 °C |
| CC(C)(C)OC(=O)CC1=CCCCC1n1nc(-c2c(-c3ccccc3)nn3ccccc23)ccc1=O (stereo not shown) [Example 95(2), 3-[2-{2-(tert-Butoxycarbonylmethyl)-2-cyclohexen-1-yl}-3-oxo-2,3-dihydropyridazin-6-yl]-2-phenylpyrazolo-[1,5-a]pyridine] | 145.5 to 147 °C |
| CCOC(=O)C[C@@H]1CCCC[C@H]1n1nc(-c2c(-c3ccccc3)nn3ccccc23)ccc1=O (relative stereo) [Example 33(1), trans-3-[2-(2-Ethoxycarbonylmethylcyclohexyl)-3-oxo-2,3-dihydropyridazin-6-yl]-2-phenylpyrazolo[1,5-a]-pyridine] | 172 to 173 °C |
| O=C1NCCCC1n1nc(-c2c(-c3ccccc3)nn3ccccc23)ccc1=O (stereo not shown) [Example 26, 3-[2-(2-Oxopiperidin-3-yl)-3-oxo-2,3-dihydropyridazin-6-yl]-2-phenylpyrazolo[1,5-a]pyridine] | 140 to 145 °C (dec.) |
| COC(=O)C[C@H]1CC[C@H](n2nc(-c3c(-c4ccccc4)nn4ccccc34)ccc2=O)C1 (relative stereo) [Example 32, trans-3-[2-(3-Methoxycarbonylmethylcyclopentyl)-3-oxo-2,3-dihydropyridazin-6-yl]-2-phenylpyrazolo[1,5-a]-pyridine] | 105 to 107 °C |

Continued, values first:

| melting point | Structure (SMILES) |
| --- | --- |
| 238 to 240 °C | O=c1ccc(-c2c(-c3ccccc3)nn3ccccc23)nn1C1CCCCC1=NO (stereo not shown) (hydrate or solvate) [Example 89, 3-[2-(2-Hydroxyiminocyclohexyl)-3-oxo-2,3-dihydropyridazin-6-yl]-2-phenylpyrazolo[1,5-a]pyridine] |
| 190 to 192 °C | O=C(O)CNC(=O)CC1=C(n2nc(-c3c(-c4ccccc4)nn4ccccc34)ccc2=O)CCCC1 [Example 55, 3-[2-{2-(N-Carboxymethylcarbamoyl)methyl-1-cyclohexenyl}-3-oxo-2,3-dihydropyridazin-6-yl]-2-phenylpyrazolo[1,5-a]pyridine] |
| 156 to 158 °C | CC1CC(C)(C)N=C(/C=C2\CCCCC2n2nc(-c3c(-c4ccccc4)nn4ccccc34)ccc2=O)O1 (stereo not shown) [Example 97(1), (E)-3-[2-{2-(4,4,6-Trimethyl-5,6-dihydro-4H-1,3-oxazin-2-yl)methylenecyclohexyl}-3-oxo-2,3-dihydropyridazin-6-yl]-2-phenylpyrazolo[1,5-a]pyridine] |
| 208.5 to 209 °C | O=C(CC1=C(n2nc(-c3c(-c4ccccc4)nn4ccccc34)ccc2=O)CCCC1)N1CCNCC1 [Example 113, 3-[2-{2-(piperazin-1-ylcarbonyl)methyl-1-cyclohexenyl}-3-oxo-2,3-dihydropyridazin-6-yl]-2-phenylpyrazolo[1,5-a]pyridine] |
| 178 to 179 °C | O=C(CC1=C(n2nc(-c3c(-c4ccccc4)nn4ccccc34)ccc2=O)CCCC1)N1CCCC1 [Example 84, 3-[2-{2-(Pyrrolidin-1-ylcarbonyl)methyl-1-cyclohexenyl}-3-oxo-2,3-dihydropyridazin-6-yl]-2-phenylpyrazolo[1,5-a]pyridine] |
| 174 to 175 °C | N#C/C=C1\CCCCC1n1nc(-c2c(-c3ccccc3)nn3ccccc23)ccc1=O (stereo not drawn) [Example 96 (E)-isomer, (E)-3-[2-{2-Cyanomethylenecyclohexyl}-3-oxo-2,3-dihydropyridazin-6-yl]-2-phenylpyrazolo[1,5-a]pyridine] |
| 166 to 168 °C | CCOC(=O)C=C1CCC(n2nc(-c3c(-c4ccccc4)nn4ccccc34)ccc2=O)CC1 (stereo not shown) [Example 94, 3-[2-(4-ethoxycarbonylmethylenecyclohexyl)-3-oxo-2,3-dihydropyridazin-6-yl]-2-phenylpyrazolo[1,5-a]-pyridine] |
| 135 to 138 °C | CN(CC(=O)O)C(=O)CC1=C(n2nc(-c3c(-c4ccccc4)nn4ccccc34)ccc2=O)CCCC1 [Example 43, 3-[2-{2-(N-carboxymethyl-N-methylcarbamoyl)methyl-1-cyclohexenyl}-3-oxo-2,3-dihydropyridazin-6-yl]-2-phenylpyrazolo[1,5-a]pyridine] |
| 80 to 81 °C | CN(C)C(=O)CC1=C(n2nc(-c3c(-c4ccccc4)nn4ccccc34)ccc2=O)CCCC1 [Example 71, 3-[2-{2-(N,N-Dimethylcarbamoyl)methyl-1-cyclohexenyl}-3-oxo-2,3-dihydropyridazin-6-yl]-2-phenylpyrazolo[1,5-a]pyridine] |
| 170 °C | O=c1ccc(-c2c(-c3ccccc3)nn3ccccc23)nn1-c1ccccc1 [Example 99, 3-(2-phenyl-3-oxo-2,3-dihydropyridazin-6-yl)-2-phenylpyrazolo[1,5-a]pyridine] |
